According to patent US9889183B2, “PKC activators and anticoagulant in regimen for treating stroke” (BLANCHETTE ROCKEFELLER NEUROSCIENCES INSTITUTE, priority 2010, dated 2018):

How the values were obtained:
[1] = test system: Aβ in neuro2a (N2a) neuroblastoma cells; assay: Aβ production in N2a cells transfected with human APPSwe/PS1D (ELISA); assay type: cell-based, mouse; conditions: for levels of intracellular Aβ / levels of secreted Aβ: various concentrations; for levels of intracellular Aβ: FIG. 11a; for levels of secreted Aβ: FIG. 11b; for concentration dependence of Aβ inhibition: up to 10 μM to 100 μM, no evidence of downregulation
Protocol: Cell culture. Rat hippocampal H19-7/IGF-IR cells (ATCC, Manassas, Va.) were plated onto poly-L-lysine coated plates and grown at 35° C. in DMEM/10% FCS for several days until about 50% coverage was obtained. The cells were then induced to differentiate into a neuronal phenotype by replacing the medium with 5 ml N2 medium containing 10 ng/ml basic fibroblast growth factor at 39° C. and grown in T-75 flasks at 37° C. Human SH-SY5Y neuroblastoma cells (ATCC) were cultured in 45% F12K/45% MEM/10% FCS. Mouse N2A neuroblastoma cells were cultured in DMEM/10% FCS without glutamine. Rat hippocampal neurons from 18-day-old embryonic Sprague Dawley rat brains were plated on 12- or 96-well plates coated with poly-D-lysine (Sigma-Aldrich, St. Louis, Mo.) in B-27 neurobasal medium containing 0.5 mM glutamine and 25 μM glutamate (Invitrogen, Carlsbad, Calif.) and cultured for three days in the medium without glutamate. The neuronal cells were grown under 5% CO2 in an incubator maintained at 37° C. for 14 days.
(§1) Aβ Measurement and Cell Viability Assay. Aβ was measured using an Aβ 1-42 human fluorimetric ELISA kit (Invitrogen) according to the manufacturer's instructions. Results were measured in a Biotek Synergy HT microplate reader. AlamarBlue and CyQuant NF (Invitrogen) according to the manufacturer's instructions.
To measure the effects of PKCε activation on Aβ production, mouse neuro2a (N2a) neuroblastoma cells transfected with human APPSwe/PSID were used, which produce large quantities of Aβ. Petanceska et al., J Neurochem. (1996), vol. 74, pp. 1878-1884. […] With bryostatin, which activates PKC by binding to the diacylglycerol-binding site, the inhibition was biphasic with concentrations of 20 nM or higher producing no net effect. This may be explained by the ability of this class of PKC activators to downregulate PKC when used at high concentrations.

[2] = test system: TACE in N2a neuroblastoma cells; assay: TACE assay, N2a cells; assay type: cell-based; conditions: N2a mouse neuroblastoma cells, FIG. 13a
Protocol: (§2) FIGS. 13a, 13b and 13c show effects of (FIG. 13a) bryostatin, BR-101 (DCP-LA) and BR-111 (DHA-CP6) on TACE activity in N2a neuroblastoma cells transfected with human APPSwe/PS1D; (FIG. 13b) various concentrations of bryostatin on TACE activity in rat cortical primary neurons; and (FIG. 13c) BR-111 (DHA-CP6) on TACE activity in rat cortical primary neurons.
(§3) TACE Assay. TACE was measured by incubating 5 μl cell homogenate, 3 μl buffer (50 mM Tris-HCl 7.4 plus 25 mM NaCl plus 4% glycerol), and 1 μl of 100 μM TACE substrate (Aβz-[…]-DPa) (Calbiochem) for 20 min at 37° C. 1.5-ml polypropylene centrifuge tubes. Jin et al., Anal. Biochem. (2002), vol. 302, pp. 269-275. The reaction was stopped by cooling to 4° C. The samples were diluted to 1 ml and the fluorescence was rapidly measured (ex=320 nm, em=420 nm) in a Spex Fluorolog 2 spectrofluorometer.
(§4) Buxbaum et al., J Biol. Chem. (1998), vol. 273, pp. 27765-27767; Etcheberrigaray et al., Proc. Natl. Acad. Sci. USA (2006), vol. 103, pp. 8215-8220. However, many of these earlier studies were carried out in fibroblasts and other non-neuronal cell types, which appear to respond differently to PKC activators than neurons.

[3] = test system: SH-SY5Y neuroblastoma cells; assay: Cell survival and proliferation (alamar Blue, CyQuant); assay type: cell-based, human
Protocol: as §1

[4] = test system: Endothelin-converting enzyme (ECE); assay: ECE assay in neuroblastoma cells; assay type: cell-based, human; conditions: bryostatin 0.27 nM, BR-101 1 μM, BR-111 1 μM; FIG. 14
Protocol: ECE assay. […] neuroblastoma cells were incubated with bryostatin (0.27 nM), BR-101 (DCP-LA) (1 μM), and BR-111 (DHA-CP6) (1 μM). Endothelin-converting enzyme (ECE) was measured fluorimetrically using the method of Johnson and Ahn (Anal. Biochem. (2000), vol. 286, pp. 112-118). A sample of cell homogenate (20 μl) was incubated in 50 mM MES-KOH, pH 6.0, 0.01% C12E10 (polyoxyethylene-10-lauryl ether), and 15 μM McaBK2 (7-Methoxycoumarin-4-acetyl [Ala7-(2,4-Dinitrophenyl)Lys9]-bradykinin trifluoroacetate salt) (Sigma-Aldrich). After 60 min at 37° C., the reaction was quenched by adding trifluoroacetic acid to 0.5%. The sample was diluted to 1.4 ml with water and the fluorescence was measured at ex=334 nm, em=398 nm.

TACE in primary neurons = assay: TACE assay, rat primary neurons; assay type: cell-based; conditions: FIG. 13b and 13c
Protocol: as §2, §3, §4

Compound | levels of intracellular Aβ ([1]; 24 hours) | levels of secreted Aβ ([1]; 24 hours) | concentration dependence of Aβ inhibition [1] | TACE activity [2] | effect on cell survival (alamar Blue) [3] | effect on proliferation (CyQuant) [3] | ECE activity [4] | concentrations producing no net effect on Aβ (biphasic inhibition) ([1]; 24 hours) | TACE activity (TACE in primary neurons)
CCCCCC1CC1CC1CC1CCCCCCCC(=O)O (centres unmarked) [BR-101, 2-[(2-pentylcyclopropyl)methyl]cyclopropaneoctanoic acid] | markedly reduced | markedly reduced | monotonically increasing inhibition | small increases | no effect | no effect | sustained increase |  | 
CCC/C=C/C=C/C(=O)O[C@H]1/C(=C/C(=O)OC)C[C@H]2C[C@H]([C@@H](C)O)OC(=O)C[C@H](O)C[C@@H]3C[C@H](OC(C)=O)C(C)(C)[C@](O)(C[C@@H]4C/C(=C/C(=O)OC)C[C@H](/C=C/C(C)(C)[C@]1(O)O2)O4)O3 [Bryostatin-1, bryostatin-1] | markedly reduced | markedly reduced |  | small increases | no effect | no effect | sustained increase | ≥ 20 nM | small increases
CCC1CC1CC1CC1CC1CC1CC1CC1CC1CC1CC1CC1CCC(=O)OC (centres unmarked) [BR-111, methyl-3-(2-((2-((2-((2-((2-((2-ethylcyclopropyl)methyl)cyclopropyl)methyl)cyclopropyl)methyl)-cyclopropyl)methyl)cyclopropyl)methyl)cyclopropyl)propanoate] | markedly reduced | markedly reduced | monotonically increasing inhibition | small increases | no effect | no effect | sustained increase |  | small increases
